Data taken from patent US9023853B2, “Janus kinase 2 (JAK2) inhibitor for the treatment of lupus” (Cephalon, Inc., priority 2010, dated 2015).

Legend:
Assay type in all cases: in vivo, mouse
NZM mice = experiment: Splenomegaly (EOS spleen mass) in NZM mice
Procedure: Age mated, female, NZM or NZW/LacJ, mice were matured for the study of lupus nephritis for a total of 7 months or 210 days at which time urine was collected for proteinuria detection. Mice with 0.5-1.0 mg/ml of urine protein as determined by an optical density-based total protein precipitation assay and cross-checked for 30-300 mg/dl of protein as determined by a stick assay were considered proteinuria positive and selected for study entry. Groups were normalized to contain a Gaussian distribution of proteinuria positive animals (i.e., ⅓ low proteinuria, ⅓ medium, ⅓ high) then randomized between groups before ear marking and taking baseline measures including urine and serum collections. A total of five mice from the total population were randomly selected for baseline kidney histology evaluation. Treatments and tests for each group are as described in FIG. 12. Briefly, with a minimum of 10 mice per group, COMPOUND A was administered at 100 mg/kg or 55 mg/kg, both twice a day and orally. […] Vehicle included 3% DMSO, 10% Solutol and 87% PBS. […] End-stage lupus nephritis was evaluated by histopathology and scored by a board certified pathologist for the assessment of total renal damage in diseased animals using the scoring method described by Smith et al (Smith, Dong et al. 2007). […] Day-98 or “end of treatment/study” represents 310 days of age for the NZM animals.

IL-17A = experiment: Serum IL-17A in NZM mice
Procedure: For the processing of serum samples for cytokine analysis, frozen plasma at −80° C. was thawed on ice, vortexed, and centrifuged for 10 minutes to remove debris and aggregates. A total of 25-50 μL of serum was used for Luminex® assays following the manufacturer's instructions. Ten different mouse cytokines were measured using the mouse cytokine 10-plex bead kit (Invitrogen, Carlsbad, Calif., no. LMC0001). Briefly, filter plates (Millipore, Billerica, Mass., no. MAIPSWU10), were pre-wet with 200 μL of wash solution (kit component) and 25 μL of beads were added per well. […]
Age mated, female, NZM or NZW/LacJ, mice were matured for the study of lupus nephritis for a total of 7 months or 210 days at which time urine was collected for proteinuria detection. Mice with 0.5-1.0 mg/ml of urine protein as determined by an optical density-based total protein precipitation assay and cross-checked for 30-300 mg/dl of protein as determined by a stick assay were considered proteinuria positive and selected for study entry. […] End-stage lupus nephritis was evaluated by histopathology and scored by a board certified pathologist for the assessment of total renal damage in diseased animals using the scoring method described by Smith et al (Smith, Dong et al. 2007). […]

plasma cells = experiment: BrdU short-lived / long-lived plasma cells in spleen and bone marrow of NZM mice; settings: 15 week old NZM mice, two weeks
Procedure: Twenty-four hours before the end of the study each mouse was injected i.p. with 2 mg of thymidine analog, bromodeoxyuridine (BrdU). BrdU (Cat#550891) and an anti-BrdU-FITC staining kit (Cat#559619) were obtained from BD Biosciences (Franklin Lakes, N.J.). Twenty-four hours after BrdU injection spleen and bone marrow were individually processed to isolate leukocytes for flow staining. Cells were surface stained with anti-CD19-Cyc, anti-CD38-PE and anti-CD138-APC (all obtained from eBioscience in San Diego, Calif.) as well as anti-BrdU-FITC (from the BrdU kit). Analysis included gating on live SSC/FSC populations, CD19-negative, CD38-positive and gating on CD138-positive, BrdU-negative (non-cycling, long-lived plasma cells, region R2) or BrdU-positive (cycling, short-lived plasma cells, region R1) as shown in FIG. 42. All samples were analyzed using an Accuri C6 Flow Cytometer. Complete media (R10) was used for all experiments involving the ex vivo culture of splenocytes for all Elispot experiments. […] The Figures depict spleen short-lived plasma cells (FIG. 38), bone marrow isolated short-lived plasma cells (FIG. 39), spleen long-lived plasma cells (FIG. 40), and bone marrow isolated long-lived plasma cells (FIG. 41). Also depicted are representative dot plots providing gating examples and short-lived plasma cells, R1, and long-lived plasma cells, R2, gates (FIG. 42). Graphs show mean±SEM, statistical test included two-tailed, Mann-Whitney t-test, *p<0.05 was considered significant. All events shown were originally size gated on live cells, graphs show CD19-negative, CD38/CD138-double positive populations that had either incorporated BrdU (cycling, thus short-lived plasma cells, see region R1) or not incorporated BrdU (non-cycling, thus long-lived plasma cells, see region R2).

pSTAT3 = experiment: Pharmacodynamic renal pSTAT3 (JAK2 inhibition marker) in MRL/lpr mice; settings: four hours after final dosing at EOS
Source text: MRL/lpr mice were first randomized, initial bleeds collected, and body weights recorded for baseline measurements (FIG. 1). All mice were individually ear tagged and were monitored throughout the entire experiment (e.g., “Group#-Cage letter-Mouse#”, so “3B5”=Group 3 (G3), cage B, mouse#5). Mice were age-matched and treatment started at 6-8 weeks of age. Cheek bleeds and urine collection continued weekly throughout the experiment. Mice were individually tracked for several parameters including cytokine and ANA levels, proteinuria, body mass, lymphomegaly, general health, and mortality. All parameters were evaluated bi-monthly except mortality which was monitored daily. All groups consisted of a minimum of at least 10-12 mice per group. Ex vivo experiments included flow cytometry analyses for plasma cells, serum complement C3 and ANA levels; urine protein and leukocytes, serum cytokine profiling, renal histo pathology, and determination of compound levels (pharmacokinetics (PK)) in the spleen, kidney and plasma. Mice were tracked on an individual basis. For all data, mice were grouped into populations and data graphed as mean±SEM. Bi-monthly observations and data collected were recorded for each group, except mortality which was performed daily. End-stage readouts were analyzed as described in the MATERIALS AND METHODS section (above) and in FIG. 1. […]

## CN1CCN(c2cccc(Nc3nc4c(-c5ccc(S(C)(=O)=O)cc5)cccn4n3)c2)CC1 [COMPOUND A, [8-(4-methanesulfonyl-phenyl)-[1,2,4]triazolo[1,5-a]pyridin-2-yl]-[3-(4-methyl-piperazin-1-yl)-phenyl]-amine]
NZM mice; 55 mg/kg
  total EOS spleen mass decrease compared to vehicle: 71.8%
NZM mice; 100 mg/kg
  total EOS spleen mass decrease compared to vehicle: 73.5%
IL-17A; 55 mg/kg
  serum IL-17A decrease compared to vehicle: 79.1%
IL-17A; 100 mg/kg
  serum IL-17A decrease compared to vehicle: 86.2%
Plasma cells; 100 mg/kg orally b.i.d., FIG. 39
  short lived plasma cells in the bone marrow: impacted
Plasma cells; 100 mg/kg orally b.i.d., FIG. 41
  long lived plasma cells in the bone marrow: impacted
Plasma cells; all three doses (100, 55, 30 mg/kg) orally b.i.d., FIG. 40
  long lived plasma cells in the spleen: impacted
pSTAT3; 55 mg/kg
  renal pSTAT3: Significant reductions
pSTAT3; 100 mg/kg
  renal pSTAT3: Significant reductions
